This note sets out measurements from ChEMBL document CHEMBL3616462, “Synthesis and antiviral activity of maleopimaric and quinopimaric acids' derivatives” (Bioorg Med Chem, 2015).

The nature of series [1]: Selectivity index, ratio of CC50 for Influenza A virus (A/California/07/2009(H1N1)) infected MDCK cells to EC50 for antiviral activity against Influenza A virus H1N1 (A/California/07/2009(H1N1)) infected in MDCK cells. The class given is toxicity, cell-based. As to conditions: dog; read-out: Ratio CC50/EC50.
Series [2] can be described thus: Cytotoxicity against Influenza B virus (B/Florida/4/2006) infected MDCK cells. The format is cell-based, Canis lupus familiaris. As to conditions: dog.
Series [3] in a line: Cytotoxicity against Influenza A virus (A/Brisbane/10/2007(H3N2)) infected MDCK cells. The format is cell-based, Canis lupus familiaris. The settings on record: dog.
Series [4] can be described thus: Cytotoxicity against Influenza A virus (A/Viet Nam/1203/2004(H5N1)) infected MDCK cells. As to conditions: dog. The class given is cell-based, Canis lupus familiaris.
Series [5] in a line: Antiviral activity against Influenza A virus (A/California/07/2009(H1N1)) infected in MDCK cells. The class given is functional, cell-based.
Series [6] in a line: Antiviral activity against Influenza A virus (A/Brisbane/10/2007(H3N2)) infected in MDCK cells. The class given is functional, cell-based.
Series [7] in a line: Antiviral activity against Influenza A virus (A/Viet Nam/1203/2004(H5N1)) infected in MDCK cells. The class given is functional, cell-based.
In the next series the test system is Influenza B virus. Briefly: Antiviral activity against Influenza B virus (B/Florida/4/2006) in MDCK cells. As to conditions: B/Florida/4/2006, MDCK. The format is functional, cell-based.
Series [8] can be described thus: Cytotoxicity against Influenza A virus (A/California/07/2009(H1N1)) infected MDCK cells. The format is cell-based, Canis lupus familiaris. The settings on record: dog.
Series [9] can be described thus: Selectivity index, ratio of CC50 for Influenza A virus (A/Brisbane/10/2007(H3N2)) infected MDCK cells to EC50 for antiviral activity against Influenza A virus (A/Brisbane/10/2007(H3N2)). The class given is toxicity, cell-based. As to conditions: dog; read-out: Ratio CC50/EC50.

The structures appear in SMILES notation.

As a reminder, the CC50 is the concentration at which the toxic effect on the cells reaches its halfway point. What is called EC50 is the concentration that produces a half-maximal response. Read a high EC50 as a less potent agent.

Consider `COC(=O)[C@]1(C)CCC[C@]2(C)[C@H]3C[C@H]4C(C(C)C)=C[C@]3(CC[C@H]21)[C@@H]1/C(=N/O)CC[C@H](O)[C@@H]14`, for which the selectivity ratio in series [1] was determined as 1.1. Also, the CC50 was found to be 1.2 µM in [2], 1.6 µM in [3], 1.2 µM in series [4] and 3.5 µM in series [8]. In addition, the EC50 in series [5] was 3.2 µM; in [6] it was greater than 1.6 µM; in series [7], greater than 1.2 µM; with Influenza B virus, greater than 1.2 µM.
As to `COC(=O)[C@]1(C)CCC[C@]2(C)[C@H]3C[C@H]4C(C(C)C)=C[C@]3(CC[C@H]21)[C@@H]1C(=O)CCC2(OCCO2)[C@@H]14`, the selectivity ratio in series [1] was determined as 1.3. The cytotoxic concentration (CC50) in series [2] was 27 µM; in [3], 26 µM; in series [4], 24 µM; in series [8] it was 34 µM. Further, the EC50 was 27 µM in [5], greater than 26 µM in series [6], greater than 24 µM in series [7] and greater than 27 µM in the series on Influenza B virus.
Take `COC(=O)[C@]1(C)CCC[C@]2(C)[C@H]3C[C@@H]4[C@H]5[C@@H]6CCC(=O)[C@H]5[C@@]3(CC[C@H]21)CC4(C(C)C)O6`: the 50% cytotoxic concentration (CC50) in series [2], in series [3], in series [4] and in series [8] was greater than 100 µM throughout. Also, the concentration for a half-maximal effect (EC50) (in [5]; in series [6]; in series [7]; in the series with Influenza B virus) was greater than 100 µM each time.
In the case of `COC(=O)[C@H]1[C@@H](C(=O)OC)[C@@]23C=C(C(C)C)[C@@H]1C[C@@H]2[C@@]1(C)CCC[C@@](C)(C(=O)OC)[C@@H]1CC3`, the selectivity ratio in series [1] was found to be 2.5. The values for the cytotoxic concentration (CC50) in [3] and in series [8] were 7.6 µM and 9.4 µM, respectively. Moreover, the EC50 in series [5] is 3.8 µM; in series [6] it was greater than 7.6 µM.
As for `CC(C)C1=C[C@@]23CC[C@@H]4[C@](C)(CCC[C@@]4(C)C(=O)O)[C@H]2C[C@@H]1[C@H]1C(=O)C=CC(=O)[C@H]13`, in series [1], the selectivity ratio amounted to 1. Besides, the half-maximal cytotoxic concentration (CC50) turned out to be 20 µM in series [2], 27 µM in [3], 30 µM in series [4] and 33 µM in series [8]. The half-maximal effective concentration (EC50) was 32 µM in series [5], greater than 27 µM in [6], greater than 30 µM in [7] and greater than 20 µM in the series with Influenza B virus.
On to `COC(=O)[C@]1(C)CCC[C@]2(C)[C@H]3C[C@H]4C(C(C)C)=C[C@]3(CC[C@H]21)[C@@H]1C(=O)C=CC(=O)[C@@H]14`, for which the CC50 was found to be 2.9 µM in series [2], 3.9 µM in series [3], 2.9 µM in series [4] and 5.5 µM in series [8]. Moreover, the 50% effective concentration (EC50) was greater than 5.5 µM in [5], 3.2 µM in series [6], greater than 2.9 µM in series [7] and greater than 2.9 µM in the series with Influenza B virus. The selectivity ratio in [9] is 1.2.
For `COC(=O)[C@]12C=CC(=O)[C@H]1[C@@]13C=C(C(C)C)[C@@H]2C[C@@H]1[C@@]1(C)CCC[C@@](C)(C(=O)OC)[C@@H]1CC3`, the selectivity ratio in series [1] and in [9] was 1.2 each time. Further, the cytotoxic concentration (CC50) was found to be 25 µM in series [2], 3.9 µM in series [3], 13 µM in series [4] and 3.8 µM in series [8]. In addition, the EC50 in series [5] is 3.1 µM; in series [6], 3.2 µM; in series [7] it was greater than 13 µM; in the series with Influenza B virus, greater than 25 µM.
For the molecule `COC(=O)[C@]1(C)CCC[C@]2(C)[C@H]3C[C@H]4C(C(C)C)=C[C@]3(CC[C@H]21)[C@@H]1C(=O)CC[C@H](O)[C@@H]14`, the half-maximal cytotoxic concentration (CC50) in series [2], in [3], in series [4] and in series [8] was greater than 100 µM in each case. Further, the EC50 (in series [5]; in series [6]; in [7]; with Influenza B virus) was greater than 100 µM in each case.
As for `COC(=O)[C@]1(C)CCC[C@]2(C)[C@H]3C[C@H]4C(C(C)C)=C[C@]3(CC[C@H]21)[C@H]1[C@@H]4[C@@H](O)CC[C@@H]1O`, in series [1], the selectivity ratio turned out to be 1.9. Also, the 50% cytotoxic concentration (CC50) was greater than 100 µM in series [2], 64 µM in series [3], greater than 100 µM in [4] and 93 µM in [8]. The EC50 in series [5] is 48 µM; in series [6], greater than 64 µM; in series [7] it was greater than 100 µM; in the series on Influenza B virus, greater than 100 µM.
Regarding `CC(C)C1=C[C@@]23CC[C@H]4[C@](C)(CO)CCC[C@]4(C)[C@H]2C[C@@H]1[C@@H]1[C@H]3[C@@H](O)CC[C@@H]1O`, the CC50 in series [2] was 31 µM; in series [3], 33 µM; in [4] it was 29 µM; in [8] it was 11 µM. The concentration giving a half-maximal response (EC50) in series [5] is greater than 11 µM; in series [6], 32 µM; in series [7] it was greater than 29 µM; with Influenza B virus, greater than 31 µM. In series [9], the selectivity ratio came to 1.
Regarding `COC(=O)[C@]1(C)CCC[C@]2(C)[C@H]3C[C@H]4C(C(C)C)=C[C@]3(CC[C@H]21)[C@@H]1C(=O)CC[C@H](OC(C)=O)[C@@H]14`, the half-maximal cytotoxic concentration (CC50) in series [2], in [3], in [4] and in series [8] was greater than 100 µM throughout. Also, the EC50 (in series [5]; in series [6]; in series [7]; in the series with Influenza B virus) was greater than 100 µM each time.
`COC(=O)[C@]1(C)CCC[C@]2(C)[C@H]3C[C@H]4C(C(C)C)=C[C@]3(CC[C@H]21)[C@@H]1C(=O)CC[C@H](OCCC#N)[C@@H]14`: the half-maximal cytotoxic concentration (CC50) is 52 µM in [2], 68 µM in [3], 31 µM in [4] and greater than 100 µM in [8]. Also, the EC50 in series [5] was greater than 100 µM; in series [6], 34 µM; in [7], greater than 31 µM; in the series on Influenza B virus, greater than 52 µM. Also, in series [9], the selectivity ratio turned out to be 2.
Consider `COC(=O)[C@]1(C)CCC[C@]2(C)[C@H]3C[C@H]4C(C(C)C)=C[C@]3(CC[C@H]21)[C@H]1[C@@H]4[C@@H](OC(=O)c2cccnc2)CC[C@@H]1OC(=O)c1cccnc1`, for which, in series [1], the selectivity ratio worked out at 1.1. Besides, the CC50 in series [2] was 11 µM; in series [3], 4.9 µM; in series [4], 8.5 µM; in series [8] it was 32 µM. Besides, the EC50 in series [5] is 29 µM; in series [6] it was greater than 4.9 µM; in series [7], greater than 8.5 µM; with Influenza B virus, greater than 11 µM.
Regarding `COC(=O)[C@]1(C)CCC[C@]2(C)[C@H]3C[C@H]4C(C(C)C)=C[C@]3(CC[C@H]21)[C@H]1[C@@H]4[C@@H](OC(=O)/C=C/c2ccccc2)CC[C@@H]1OC(=O)C=Cc1ccccc1`, the CC50 in [2] was 9.3 µM; in series [3], 4 µM; in series [4] it was 8.2 µM; in [8] it was 17 µM. In addition, the EC50 is greater than 17 µM in series [5], greater than 4 µM in [6], greater than 8.2 µM in series [7] and greater than 9.3 µM with Influenza B virus.
`CC(C)C1=C[C@@]23CC[C@H]4[C@](C)(COC(=O)/C=C/c5ccccc5)CCC[C@]4(C)[C@H]2C[C@@H]1[C@@H]1[C@H]3[C@@H](OC(=O)/C=C/c2ccccc2)CC[C@@H]1OC(=O)/C=C/c1ccccc1`: the selectivity ratio in [1] and in [9] was 1.1 throughout. The cytotoxic concentration (CC50) in series [2] is 46 µM; in series [3], 33 µM; in series [4] it was greater than 100 µM; in [8], 35 µM. The EC50 in series [5] was 31 µM; in series [6], 31 µM; in series [7], greater than 100 µM; in the series with Influenza B virus it was greater than 46 µM.
In the case of `COC(=O)[C@]1(C)CCC[C@]2(C)[C@H]3C[C@H]4C(C(C)C)=C[C@]3(CC[C@H]21)[C@@H]1/C(=N/O)CCC(=O)[C@@H]14`, the selectivity ratio in series [1] came to 1. In addition, the CC50 in [2] turned out to be 2.4 µM; in series [3], 13 µM; in [4] it was 1.7 µM; in series [8] it was 31 µM. Moreover, the EC50 in [5] was 31 µM; in series [6] it was greater than 13 µM; in series [7], greater than 1.7 µM; in the series with Influenza B virus, greater than 2.4 µM.
On to `COC(=O)[C@]1(C)CCC[C@]2(C)[C@H]3C[C@@H]4[C@@H]5[C@H]6[C@H](OC(C)=O)CC[C@@H]5OC4(C(C)C)C[C@]63CC[C@H]21`, for which the selectivity ratio in series [1] amounted to 1.1. Also, the CC50 was 10 µM in series [2], 5 µM in series [3], 12 µM in series [4] and 3.5 µM in [8]. The 50% effective concentration (EC50) in series [5] is 3.2 µM; in series [6], greater than 5 µM; in series [7], greater than 12 µM; in the series with Influenza B virus, greater than 10 µM.
Turning to `COC(=O)[C@]1(C)CCC[C@]2(C)[C@H]3C[C@H]4C(C(C)C)=C[C@]3(CC[C@H]21)[C@@H]1/C(=N/OC(C)=O)CC[C@H](OC(C)=O)[C@@H]14`, the CC50 in [2] was determined as 2.8 µM; in [3], 3.3 µM; in [4] it was 2.5 µM; in series [8] it was 4.8 µM. The EC50 was greater than 4.8 µM in series [5], 3.1 µM in series [6], greater than 2.5 µM in series [7] and greater than 2.8 µM with Influenza B virus. Also, the selectivity ratio in series [9] stood at 1.1.
